Reference: patent US7910751B2, “Heterocyclidene acetamide derivative” (Mochida Pharmaceutical Co., Ltd., priority 2005, dated 2011)

Each compound was assayed against T1, human TRPV1 (Homo sapiens, UniProt Q8NER1) (assay: Measurement of capsaicin-induced Ca influx in human TRPV1 transformed CHO cell line using FDSS-6000). Details: concentration at which the capsaicin concentration-reaction curve is shifted two times to the right, human TRPV1 transformed CHO cells.
T1 construct: expressed in transfected cells; host or cells: CHO-K1
T1 sequence (Q8NER1 whole entry): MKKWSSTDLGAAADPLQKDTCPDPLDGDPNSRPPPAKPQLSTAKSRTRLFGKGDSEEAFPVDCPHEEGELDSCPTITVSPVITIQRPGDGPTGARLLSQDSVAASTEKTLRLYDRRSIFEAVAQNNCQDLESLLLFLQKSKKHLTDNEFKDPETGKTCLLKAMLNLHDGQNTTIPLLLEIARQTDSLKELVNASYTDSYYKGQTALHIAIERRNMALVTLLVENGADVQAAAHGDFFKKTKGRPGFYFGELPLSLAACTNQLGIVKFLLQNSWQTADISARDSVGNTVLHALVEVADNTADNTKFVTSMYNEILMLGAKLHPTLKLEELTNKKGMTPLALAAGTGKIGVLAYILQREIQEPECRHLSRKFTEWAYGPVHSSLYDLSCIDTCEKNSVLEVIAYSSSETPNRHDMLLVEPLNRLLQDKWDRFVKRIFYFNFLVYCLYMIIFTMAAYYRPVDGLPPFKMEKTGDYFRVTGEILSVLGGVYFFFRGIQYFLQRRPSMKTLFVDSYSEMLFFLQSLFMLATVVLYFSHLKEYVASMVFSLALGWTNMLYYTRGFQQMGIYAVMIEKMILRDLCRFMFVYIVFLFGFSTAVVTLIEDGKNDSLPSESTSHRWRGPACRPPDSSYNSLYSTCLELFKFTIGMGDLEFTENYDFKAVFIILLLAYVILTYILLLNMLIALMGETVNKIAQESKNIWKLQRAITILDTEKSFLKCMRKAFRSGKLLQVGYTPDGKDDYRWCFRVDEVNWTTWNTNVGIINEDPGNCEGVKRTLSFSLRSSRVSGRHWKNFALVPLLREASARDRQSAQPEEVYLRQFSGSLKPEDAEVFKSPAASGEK
Type: cell-based
With `O=C(/C=C1/CCCOc2cc(C(F)(F)F)ccc21)Nc1ccc2cccnc2c1` [Example 247, (Z)-2-(8-trifluoromethyl-3,4-dihydrobenzo[b]oxepin-5(2H)-ylidene)-N-(quinolin-7-yl)acetamide] the “A2 VALUE” was “A (compounds of the present invention having an A2 value of less than 100 nM are represented by A)”.
For `O=C(/C=C1\CCCOc2cc(C(F)(F)F)c(F)cc21)Nc1cccc2c1CC(O)CC2` (stereo not drawn) [Example 248, (E)-2-(7-fluoro-8-trifluoromethyl-3,4-dihydrobenzo[b]oxepin-5-(2H)-ylidene)-N-(7-hydroxy-5,6,7,8-tetrahydronaphthalen-1-yl)acetamide], the “A2 VALUE” was “A (compounds of the present invention having an A2 value of less than 100 nM are represented by A)”.
For `O=C(/C=C1\CC2(CCC2)Oc2cc(C(F)(F)F)ccc21)Nc1cccc2c1CC(O)CC2` (stereo not drawn) [Example 251, (E)-2-(7-trifluoromethyl-2,2-cyclobutylchroman-4-ylidene)-N-(7-hydroxy-5,6,7,8-tetrahydronaphthalen-1-yl)acetamide], the “A2 VALUE” was “A (compounds of the present invention having an A2 value of less than 100 nM are represented by A)”.
In the case of `O=C(/C=C1\CC2(CCC2)Oc2cc(C(F)(F)F)ccc21)Nc1cccc2c1CC(O)CN2` (stereo not drawn) [Example 252, (E)-N-(3-hydroxy-1,2,3,4-tetrahydroquinolin-5-yl)-2-(7-trifluoromethyl-2,2-cyclobutylchroman-4-ylidene)acetamide], the “A2 VALUE” is reported as “A (compounds of the present invention having an A2 value of less than 100 nM are represented by A)”.
For `O=C(/C=C1\CCCOc2cc(C(F)(F)F)ccc21)Nc1cccc2[nH]ncc12` [Example 253, (E)-2-(8-trifluoromethyl-3,4-dihydrobenzo[b]oxepin-5(2H)-ylidene)-N-(1H-indazol-4-yl)acetamide], the “A2 VALUE” was “A (compounds of the present invention having an A2 value of less than 100 nM are represented by A)”.
For `O=C(/C=C1\CCCOc2cc(C(F)(F)F)ccc21)Nc1cccc2cn[nH]c12` [Example 254, (E)-2-(8-trifluoromethyl-3,4-dihydrobenzo[b]oxepin-5(2H)-ylidene)-N-(1H-indazol-7-yl)acetamide], the “A2 VALUE” was “A (compounds of the present invention having an A2 value of less than 100 nM are represented by A)”.
